Several values for one entry are separate records, joined by “and”; a condition that tells them apart may be missing. Equal values may be shown once. Entries after “also recorded” stand apart in the source; their conditions may differ.
Assays:
[1] = tested on: specific antibody titres against Haemophilus influenzae, Tetanus and Pneumococcal capsular polysaccharide; design: species or system human; conditions: in vivo
[2] = tested on: Immunoglobulin levels (IgG, IgA and IgM); test: First observational study: serum immunoglobulin levels by nephelometry, clozapine vs clozapine-naive patients; assay type: in vivo, human
[3] = sub-group A: all diagnoses, all smoking, possible secondary causes not excluded, n=123
[4] = sub-group A: all diagnoses, all smoking, possible secondary causes not excluded, n=123, listed as clozapine
[5] = sub-group B: all diagnoses, all smoking, possible secondary causes excluded, n=94
[6] = sub-group C: schizophrenia diagnoses only, secondary causes excluded, n=87
[7] = sub-group D: smokers only, secondary causes excluded, n=57

With CN1CCN(C2=Nc3cc(Cl)ccc3Nc3ccccc32)CC1 [Clozapine, clozapine] the “% of patients with IgG-Pneumococcus <50 mg/L (below protective level)” value [1] was 52.1% and 50.6% and 54.4%, the “% of patients with IgG-Tetanus <0.1 IU/ml (below protective level)” value [1] was 10.6% and 11.5% and 12.3% and the IgM-Pneumococcus [1] was 58.5 U/L and 59.8 U/L and 60.4 U/L and 61.6 U/L. For the same compound, the “Pneumococcal IgA level” value [1] was 31 U/ml, the “Pneumococcal IgM level” value [1] was 58.5 U/ml and the “pneumococcal IgA level” value [1] was 31.0 U/L. The “% of patients with Serum IgM <0.3 g/L” value ([2]; human, in vivo) was 12.3%, the “concentrations/distribution of IgG, IgA and IgM vs clozapine-naive control group” value ([2]; human, in vivo) was “significantly reduced concentrations; also recorded: leftward shift” and the “association of longer duration of therapy with serum IgG” value ([2]; p 0.014, not observed with alternative antipsychotic drugs, FIG. 2) was “lower serum IgG levels”. The “% of patients with Serum IgA <0.5 g/L (Reference range 0.8-4.0 g/L)” value (from here on “% of patients with Serum IgA <0.5 g/L”) [2, 3] was 1.6%, the “% of patients with Serum IgA <0.6 g/L” value [2, 3] was 2.4% and the “% of patients with Serum IgA <0.7 g/L” value [2, 3] was 6.5%. The “% of patients with Serum IgA <0.8 g/L (below reference range)” value (shortened to “% of patients with Serum IgA <0.8 g/L”) [2, 3] was 13.0%, the “% of patients with Serum IgG <3 g/L (Reference range 6-16 g/L)” value (“% of patients with Serum IgG <3 g/L” for short) [2, 3] was 0.8% and the “% of patients with Serum IgG <4 g/L” value [2, 3] was 1.6%. For the same compound, the “% of patients with Serum IgG <5 g/L” value [2, 3] was 3.3%, the “% of patients with Serum IgG <6 g/L (below reference range)” value (from here on “% of patients with Serum IgG <6 g/L”) [2, 3] was 9.8% and the “% of patients with Serum IgM <0.2 g/L (Reference range 0.5-1.9 g/L)” value (from here on “% of patients with Serum IgM <0.2 g/L”) [2, 3] was 8.1%. For the same compound, the “% of patients with Serum IgM <0.3 g/L” value [2, 3] was 16.3%, the “% of patients with Serum IgM <0.4 g/L” value [2, 3] was 29.3% and the “% of patients with Serum IgM <0.5 g/L (below reference range)” value (shortened to “% of patients with Serum IgM <0.5 g/L”) [2, 3] was 38.2%. For the same compound, the “% of patients with Serum IgA <0.8 g/L” value [2, 4] was 13.0% and 13.1%, the “% of patients with Serum IgG <6 g/L” value [2, 4] was 9.8% and the “% of patients with Serum IgM <0.5 g/L” value [2, 4] was 38.2%. The “% of patients with Serum IgA <0.5 g/L” value [2, 5] was 2.1%, the “% of patients with Serum IgA <0.6 g/L” value [2, 5] was 2.1% and the “% of patients with Serum IgA <0.7 g/L” value [2, 5] was 6.4%. For the same compound, the “% of patients with Serum IgA <0.8 g/L” value [2, 5] was 13.8%, the “% of patients with Serum IgG <3 g/L” value [2, 5] was 1.1% and the “% of patients with Serum IgG <4 g/L” value [2, 5] was 1.1%. The “% of patients with Serum IgG <5 g/L” value [2, 5] was 2.1%, the “% of patients with Serum IgG <6 g/L” value [2, 5] was 8.4% and the “% of patients with Serum IgM <0.2 g/L” value [2, 5] was 5.3%. The “% of patients with Serum IgM <0.3 g/L” value [2, 5] was 12.8%, the “% of patients with Serum IgM <0.4 g/L” value [2, 5] was 26.6% and the “% of patients with Serum IgM <0.5 g/L” value [2, 5] was 34.0%. For the same compound, the “% of patients with Serum IgA <0.5 g/L” value [2, 6] was 2.3%, the “% of patients with Serum IgA <0.6 g/L” value [2, 6] was 3.5% and the “% of patients with Serum IgA <0.7 g/L” value [2, 6] was 6.9%. The “% of patients with Serum IgA <0.8 g/L” value [2, 6] was 14.9%, the “% of patients with Serum IgG <3 g/L” value [2, 6] was 1.2% and the “% of patients with Serum IgG <4 g/L” value [2, 6] was 1.2%. The “% of patients with Serum IgG <5 g/L” value [2, 6] was 2.3%, the “% of patients with Serum IgG <6 g/L” value [2, 6] was 9.2% and the “% of patients with Serum IgM <0.2 g/L” value [2, 6] was 5.8%. For the same compound, the “% of patients with Serum IgM <0.3 g/L” value [2, 6] was 12.6%, the “% of patients with Serum IgM <0.4 g/L” value [2, 6] was 27.6% and the “% of patients with Serum IgM <0.5 g/L” value [2, 6] was 35.6%. For the same compound, the “% of patients with Serum IgA <0.5 g/L” value [2, 7] was 3.5%, the “% of patients with Serum IgA <0.6 g/L” value [2, 7] was 3.5% and the “% of patients with Serum IgA <0.7 g/L” value [2, 7] was 3.5%. The “% of patients with Serum IgA <0.8 g/L” value [2, 7] was 10.5%, the “% of patients with Serum IgG <3 g/L” value [2, 7] was 1.8% and the “% of patients with Serum IgG <4 g/L” value [2, 7] was 1.8%. The “% of patients with Serum IgG <5 g/L” value [2, 7] was 1.8%, the “% of patients with Serum IgG <6 g/L” value [2, 7] was 8.8% and the “% of patients with Serum IgM <0.2 g/L” value [2, 7] was 1.78%. For the same compound, the “% of patients with Serum IgM <0.4 g/L” value [2, 7] was 26.3% and the “% of patients with Serum IgM <0.5 g/L” value [2, 7] was 33.3%.
